According to patent publication EP0812190B1 (priority 1993, dated 1995):
Where two headings read alike, the source gives them in different places.

Legend:
[1] = tested on: anoxia-induced hyperactive syndrome; settings: 0.5 mg/kg/day to nursing mothers
Protocol: Anoxia was performed on rat pups on the first post-natal day. They were placed in a glass chamber and exposed to 100% nitrogen for 25 minutes. They were resuscitated by intermittent massage softly applied to the chest and then returned to their respective mothers. Control rats received the same treatment but with air instead of nitrogen.
Locomotion was measured in 6 fully computerized cages (28 x 28 cm) by recording the number of crossings over a given period of time. Crossings of grid infrared beams at 4-cm intervals initiated electrical impulses which fed a counter.
Recordings of motor activity were made at the ages of 15 and 20 days, over a period of 15 minutes.

MAO-B = target: T1, MAO-B (Rattus norvegicus, UniProt P19643); settings: 1 mg/kg i.p. single dose; whole brain
T1 sequence (P19643 1-520): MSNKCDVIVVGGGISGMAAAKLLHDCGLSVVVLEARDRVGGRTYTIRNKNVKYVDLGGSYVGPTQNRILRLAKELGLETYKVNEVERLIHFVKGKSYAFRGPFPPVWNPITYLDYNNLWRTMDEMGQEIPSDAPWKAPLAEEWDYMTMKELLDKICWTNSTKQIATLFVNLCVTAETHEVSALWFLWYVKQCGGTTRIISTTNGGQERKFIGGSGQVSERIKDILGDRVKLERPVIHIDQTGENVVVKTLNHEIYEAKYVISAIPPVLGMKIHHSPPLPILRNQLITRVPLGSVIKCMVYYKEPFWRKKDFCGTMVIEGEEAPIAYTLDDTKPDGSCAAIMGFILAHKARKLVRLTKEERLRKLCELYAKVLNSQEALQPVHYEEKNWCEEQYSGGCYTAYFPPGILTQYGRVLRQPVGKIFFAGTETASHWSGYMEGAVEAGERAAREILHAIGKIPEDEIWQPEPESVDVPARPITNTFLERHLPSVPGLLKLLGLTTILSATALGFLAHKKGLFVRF
Protocol: Activity of MAO-B was determined in whole brain tissues as described hereinabove.

rabbit jejunum = assay: Tyramine potentiation in rabbit jejunum preparation
MAO-A = target: T2, MAO-A (Rattus norvegicus, UniProt P21396); assay: Inhibition of MAO activity in vivo, acute treatment, MAO-A; set-up: MAO activity determined in brain and liver using the general technique described above; from tissue; host or cells: brain and liver of treated rats
T2 sequence (P21396 1-526): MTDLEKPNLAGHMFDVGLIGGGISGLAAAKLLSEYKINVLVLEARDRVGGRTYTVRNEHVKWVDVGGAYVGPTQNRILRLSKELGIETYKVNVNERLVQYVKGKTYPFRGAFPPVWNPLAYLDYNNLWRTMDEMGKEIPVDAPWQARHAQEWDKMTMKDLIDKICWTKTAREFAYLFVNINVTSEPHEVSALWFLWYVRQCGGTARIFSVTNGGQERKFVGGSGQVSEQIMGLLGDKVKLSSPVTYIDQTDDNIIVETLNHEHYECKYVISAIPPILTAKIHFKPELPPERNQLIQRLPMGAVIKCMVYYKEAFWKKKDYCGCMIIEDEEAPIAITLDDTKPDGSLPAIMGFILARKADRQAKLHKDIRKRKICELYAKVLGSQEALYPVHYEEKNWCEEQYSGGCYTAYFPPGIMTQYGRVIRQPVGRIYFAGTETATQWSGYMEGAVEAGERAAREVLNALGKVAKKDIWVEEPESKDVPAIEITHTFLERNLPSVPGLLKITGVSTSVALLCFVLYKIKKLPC
Protocol: Groups of three rats were used for each dose level of inhibitor, and MAO activity determined in brain and liver using the general technique described above. The amount of protein in each incubation was determined using the Folin-Lowry method, and enzyme activity calculated as nmol of substrate metabolized per hour of incubation for each mg of protein. Activity of MAO in tissues from animals treated with inhibitors was expressed as a percentage of the enzyme activity in a group of control animals administered vehicle (water for oral administration, 0.9% saline for ip injection) and killed as above.

[2] = tested on: MPTP-induced striatal dopamine depletions; assay: Suppression of MPTP-induced dopaminergic toxicity (striatal DA and DOPAC); assay type: in vivo, mice; settings: striatum
Protocol: Brains were removed and corpora striata dissected on an ice-cold glass plate and frozen on dry ice. Striatal tissues were homogenized in 0.1 M perchloric acid, and deproteinized aliquots containing dihydroxybenzylamine as an internal standard were assayed for dopamine and its major metabolite 3,4-dihydroxy-phenylacetic acid (DOPAC) using HPLC with electrochemical detection.

[3] = dose producing 50% inhibition, rat, i.p., 1h
[4] = dose producing 50% inhibition, rat, p.o., 2h

C#CCN[C@@H]1CCc2ccccc21 [[R](+)PAI, R(+)-N-propargyl-1-aminoindan]
numbers of crossings of infrared beam grid over 15 minutes ([1]; Anoxia-lesioned, 15-day old rats): 276 ± 186(15)a
numbers of crossings of infrared beam grid over 15 minutes ([1]; Anoxia-lesioned, 20-day old rats): 737 ± 150 (16) c
numbers of crossings of infrared beam grid over 15 minutes ([1]; Control, 15-day old rats): 254 ± 149(11)c
numbers of crossings of infrared beam grid over 15 minutes ([1]; Control, 20-day old rats): 719 ± 110(13)
time of maximal inhibition of MAO-B after injection (MAO-B): 6 h
Percent relaxation (rabbit jejunum; PAI HCl enantiomer alone 0.2-4.0 µM): 0%
Percent relaxation (rabbit jejunum; tyramine 40 µM after 0.2 µM PAI HCl enantiomer): 67%
Percent relaxation (rabbit jejunum; tyramine 40 µM after 2 µM PAI HCl enantiomer): 88%
Percent relaxation (rabbit jejunum; tyramine 40 µM after 40 µM PAI HCl enantiomer): 85-90%
inhibition of MAO-A activity (MAO-A; brain, 0.5mg/kg i.p., single dose): 20%
inhibition of MAO-A (MAO-A; brain, 0.5mg/kg oral, single dose): no detectable inhibition
IC-50 MAO-A I.P. BRAIN (MAO-A; [3]): 1.2 mg/kg
IC-50 MAO-A I.P. LIVER (MAO-A; [3]): 5 mg/kg
IC-50 MAO-A P.O. BRAIN (MAO-A; [4]): >5 mg/kg
IC-50 MAO-A P.O. LIVER (MAO-A; [4]): >5 mg/kg
DOPAC ([2]; drug alone (PAI isomers […] i.p., deprenyl 5 mg/kg i.p.)): 3.3±0.3 ng/mg protein
DA ([2]; drug alone (PAI isomers […] i.p., deprenyl 5 mg/kg i.p.), Mean±S.E.M.): 185.0±6.9 ng/mg protein
DA ([2]; pretreatment one hour before MPTP-HCl 30 mg/kg s.c. (PAI isomers […] i.p., deprenyl 5 mg/kg i.p.), 5 days later): 177.8±14.4 ng/mg protein
DOPAC ([2]; pretreatment one hour before MPTP-HCl 30 mg/kg s.c., 5 days later): 6.0±0.3 ng/mg protein
